Results: ChEMBL document CHEMBL1201862, “PubChem BioAssay data set” (2004)
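96-well plates; 48 h exposure; 5 concentrations. Endpoints by linear interpolation between flanking doses. Not reached: highest tested concentration assigned. GI50 marks 50% less growth.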 Calls of active or inactive are those of the source. Cut-off read from the data, not from the text of the source: active = GI50 up to about 1.1 µM and inactive = higher.

Tests used:
Assay in all cases: NCI anticancer screen, dose series, 48 h
MDA-N = tested on: MDA-N
KM12 = tested on: KM12
786-0 = tested on: 786-0
IGROV-1 = tested on: IGROV-1
RXF 393 = tested on: RXF 393
SW-620 = tested on: SW-620
SF-268 = tested on: SF-268
Malme-3M = tested on: Malme-3M
SK-MEL-2 = tested on: SK-MEL-2
A549 = tested on: A549
CAKI-1 = tested on: CAKI-1
HCC 2998 = tested on: HCC 2998
NCI-H226 = tested on: NCI-H226
SK-MEL-28 = tested on: SK-MEL-28
M14 = tested on: M14
MDA-MB-231 = tested on: MDA-MB-231
SR = tested on: SR
OVCAR-3 = tested on: OVCAR-3
LOX IMVI = tested on: LOX IMVI
HOP-92 = tested on: HOP-92

Measured: GI50

C/C(=N\c1ccc(N(C)C)cc1)c1ccccc1
inactive: MDA-N 21.9 µM | KM12 31.8 µM | 786-0 19.8 µM | IGROV-1 25.7 µM | RXF 393 5.35 µM | SW-620 17.9 µM | SF-268 > 10 µM | Malme-3M 10.9 µM | SK-MEL-2 11.2 µM | A549 27.9 µM | CAKI-1 19.8 µM | HCC 2998 44.6 µM | NCI-H226 76.2 µM | SK-MEL-28 33.7 µM | M14 16.3 µM | MDA-MB-231 18.3 µM | SR 19.2 µM | OVCAR-3 17.8 µM

Cc1ccc(S(=O)(=O)Oc2nc3ccccc3nc2OS(=O)(=O)c2ccc(C)cc2)cc1
inactive: MDA-N > 100 µM | KM12 > 100 µM | 786-0 > 100 µM | IGROV-1 > 100 µM | RXF 393 > 100 µM | SW-620 25.9 µM | SF-268 > 100 µM | Malme-3M 17 µM | LOX IMVI > 100 µM | SK-MEL-2 > 100 µM | A549 > 100 µM | CAKI-1 8.39 µM | HCC 2998 > 100 µM | NCI-H226 > 100 µM | SK-MEL-28 28 µM | M14 33.7 µM | MDA-MB-231 > 100 µM | SR 54.7 µM | OVCAR-3 > 100 µM

Nc1nc2c(C(=O)O)c3ccc([N+](=O)[O-])cc3c(=O)n2c2ccccc12
inactive: MDA-N 22.8 µM | KM12 25.8 µM | 786-0 20.6 µM | IGROV-1 26.9 µM | RXF 393 14.5 µM | SW-620 39 µM | SF-268 33.8 µM | Malme-3M 40 µM | LOX IMVI 11.9 µM | SK-MEL-2 24.9 µM | A549 26.2 µM | CAKI-1 34.4 µM | HCC 2998 32.3 µM | NCI-H226 21.2 µM | SK-MEL-28 52.8 µM | M14 21.4 µM | MDA-MB-231 24.9 µM | SR 24.3 µM | OVCAR-3 21.1 µM

CC1(C)CC[C@]2(C(=O)O)CC[C@]3(C)C(=CC[C@@H]4[C@@]5(C)C[C@H](O)[C@H](O)[C@@](C)(CO)C5=CC[C@]43C)[C@@H]2C1
inactive: MDA-N > 100 µM | KM12 21.4 µM | 786-0 55.2 µM | IGROV-1 31.1 µM | SW-620 > 100 µM | SF-268 43.1 µM | Malme-3M > 100 µM | LOX IMVI 71.3 µM | SK-MEL-2 > 100 µM | A549 28.8 µM | CAKI-1 55 µM | HCC 2998 35.4 µM | HOP-92 > 100 µM | SK-MEL-28 > 100 µM | M14 > 100 µM | MDA-MB-231 > 100 µM | SR > 100 µM | OVCAR-3 > 100 µM

SCc1ccc(CS)s1
inactive: MDA-N > 100 µM | KM12 > 100 µM | 786-0 > 100 µM | IGROV-1 > 100 µM | SW-620 > 100 µM | SF-268 > 100 µM | LOX IMVI > 100 µM | A549 > 100 µM | HCC 2998 > 100 µM | HOP-92 15.3 µM | SK-MEL-28 > 100 µM | M14 > 100 µM | MDA-MB-231 > 100 µM | SR > 100 µM | OVCAR-3 > 100 µM

Oc1ccc(/C=C/c2ccc3cccc(O)c3n2)cc1O
inactive: MDA-N 5.41 µM | KM12 5.45 µM | 786-0 3.24 µM | IGROV-1 1.44 µM | RXF 393 3.24 µM | SW-620 4.24 µM | SF-268 6.5 µM | LOX IMVI 4.48 µM | SK-MEL-2 11.9 µM | A549 4.23 µM | CAKI-1 4.98 µM | HCC 2998 10.8 µM | HOP-92 15.9 µM | SK-MEL-28 13 µM | M14 2.69 µM | MDA-MB-231 23 µM | SR 3.22 µM | OVCAR-3 10.9 µM

N#C/C(=C(\O)C(=O)O)c1ccc(-c2cccc3ccccc23)cc1
inactive: MDA-N > 100 µM | KM12 > 100 µM | 786-0 > 100 µM | IGROV-1 > 100 µM | RXF 393 > 100 µM | SW-620 > 100 µM | SF-268 > 100 µM | Malme-3M > 100 µM | LOX IMVI > 100 µM | SK-MEL-2 > 100 µM | A549 > 100 µM | CAKI-1 > 100 µM | NCI-H226 > 100 µM | HOP-92 > 100 µM | SK-MEL-28 > 100 µM | M14 > 100 µM | MDA-MB-231 > 100 µM | SR 3.11 µM | OVCAR-3 > 100 µM

COC(=O)/C=c1/c2ccccc2n2nc3ccccc3c12
inactive: MDA-N 30.8 µM | KM12 27.5 µM | 786-0 27.6 µM | IGROV-1 > 100 µM | RXF 393 34 µM | SW-620 65 µM | SF-268 49.9 µM | Malme-3M 99.1 µM | LOX IMVI 36.9 µM | SK-MEL-2 74.6 µM | A549 65.9 µM | CAKI-1 63 µM | HCC 2998 62.5 µM | SK-MEL-28 > 100 µM | M14 > 100 µM | MDA-MB-231 16.4 µM | SR 4.03 µM | OVCAR-3 > 100 µM

Cn1c(N)c(/N=N/c2ccc(S(N)(=O)=O)cc2)c(=O)n(C)c1=O
inactive: MDA-N > 100 µM | KM12 > 100 µM | 786-0 53.1 µM | IGROV-1 > 100 µM | RXF 393 > 100 µM | SW-620 > 100 µM | SF-268 88.1 µM | Malme-3M > 100 µM | LOX IMVI > 100 µM | SK-MEL-2 > 100 µM | A549 > 100 µM | CAKI-1 > 100 µM | NCI-H226 > 100 µM | HOP-92 > 100 µM | SK-MEL-28 > 100 µM | M14 > 100 µM | MDA-MB-231 > 100 µM | SR > 100 µM | OVCAR-3 > 100 µM

C=C[C@]1(C)CC(=O)C(C(C)C=O)[C@]12C(=O)Oc1cccc(C)c1C2=O (stereo not given in full)
inactive: MDA-N 14.5 µM | KM12 14.7 µM | 786-0 16.4 µM | RXF 393 13.9 µM | SW-620 11.8 µM | SF-268 24.1 µM | Malme-3M 18 µM | LOX IMVI 14 µM | SK-MEL-2 17.1 µM | A549 18 µM | CAKI-1 14.4 µM | HCC 2998 17.7 µM | NCI-H226 15.3 µM | SK-MEL-28 15.2 µM | M14 16.3 µM | MDA-MB-231 17.6 µM | SR 27 µM | OVCAR-3 15.9 µM

CC(C(=O)c1ccccc1)C(c1ccccc1)N1CCOCC1 (stereo not given)
inactive: MDA-N > 100 µM | KM12 > 100 µM | 786-0 > 100 µM | IGROV-1 > 100 µM | RXF 393 > 100 µM | SW-620 > 100 µM | SF-268 > 100 µM | Malme-3M > 100 µM | LOX IMVI > 100 µM | SK-MEL-2 > 100 µM | A549 > 100 µM | CAKI-1 > 100 µM | NCI-H226 > 100 µM | HOP-92 > 100 µM | SK-MEL-28 > 100 µM | M14 > 100 µM | MDA-MB-231 > 100 µM | SR > 100 µM | OVCAR-3 > 100 µM
